In general, IC50 refers to the concentration at which inhibition is half-maximal.

Molecules are shown by their SMILES.

The experiment addresses T1, A3 human recombinant receptor (Homo sapiens, UniProt P0DMS8).
T1 sequence (P0DMS8 1-318): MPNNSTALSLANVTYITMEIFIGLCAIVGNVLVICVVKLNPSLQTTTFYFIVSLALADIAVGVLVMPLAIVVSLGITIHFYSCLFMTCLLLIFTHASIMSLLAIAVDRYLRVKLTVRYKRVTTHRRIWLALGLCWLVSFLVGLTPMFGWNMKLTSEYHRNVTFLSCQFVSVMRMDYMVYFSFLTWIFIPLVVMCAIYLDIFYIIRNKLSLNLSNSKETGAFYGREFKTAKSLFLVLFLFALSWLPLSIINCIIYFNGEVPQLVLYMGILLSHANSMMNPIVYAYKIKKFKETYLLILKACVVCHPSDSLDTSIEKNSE
Description: AequoScreen adenosine A3 receptor assay, antagonist mode (luminescence, against reference agonist IB-MECA). The experiment is classed as cell-based. The note with it: AequoScreen cells expressing A3 human recombinant receptor and Gα16; inhibition of IB-MECA at EC80; duplicate determinations at 8 concentrations. On the procedure:
AequoScreen™ (Euroscreen, Belgium) cell lines expressing the A3 human recombinant receptor and the promiscuous G protein Gα16 were used throughout the study. AequoScreen™ cells were cultured following recommended conditions for at least one week prior to the test. The day before the test, cells were harvested with PBS-EDTA, washed and re-suspended in BSA-DMEM12 (Dulbecco's Modified Eagles Medium—Ham's F12 with 0.1% BSA). Suspended cells were then incubated at room temperature with coelenterazine h overnight. For agonist and antagonist testing, 50 μl of the cell suspension were injected onto 50 μl of the test compound or control in 96-well plates, and the resulting emission of light measured for the determination of cell activation. After the first reading, and following an incubation time of 15-30 min, 100 μl of the reference agonist (IB-MECA) at a concentration equal to the EC80 of the day of the experiment were injected onto the cell suspension containing the test compounds. The resulting emission of light was measured for the determination of antagonistic effects. Light emission for agonist and antagonist tests was recorded using a Hamamatsu FDSS-6000 reader. For agonist data, percentages of activation were calculated on the basis of the activation (luminescence data) induced by the reference agonist at a saturating concentration (EC100). For antagonist data, percentages of inhibition were calculated on the basis of the activation (luminescence data) induced by the reference agonist at a concentration equal to the EC80. The test compounds were tested as duplicate determinations at 8 concentrations of 100, 10, 1, 0.1 μM and 10, 1, 0.1, and 0.01 nM for agonist activity and 50, 5, 0.5, 0.05 μM and 5, 0.5, 0.05, and 0.005 nM for antagonist activity. Dose-response data, EC50/IC50, from test compound was analyzed with XLfit (IDBS) software.
This assay may be used to determine the IC50 value for adenosine A3 antagonists according to the invention (see Example 42).
Take `CNC(=O)[C@@]12CN[C@@H]([C@H](n3cnc4c(N)ncnc43)O1)[C@@H]2O` [SPN0238, (1R,3R,4R,7S)-(7-hydroxy-3-(adenin-9-yl)-2-oxa-5-azabicyclo[2:2:1]hept-1-yl)-N-methylcarboxamide]: the concentration for half-maximal inhibition (IC50) came out at 173 nM. In the case of `OCC12CNC(C(n3cnc4c(NCc5cccc(I)c5)ncnc43)O1)C2O` (single isomer, unassigned) [SPN0234] it was 8.2 nM. The value for `CNC(=O)[C@@]12CO[C@@H]([C@H](n3cnc4c(NCc5cccc(I)c5)ncnc43)O1)[C@@H]2N=[N+]=[N-]` [SPN0192, (1S,3R,4R,7S)-(7-azido-3-(N6-(3-iodobenzyl)-adenin-9-yl)-2,5-dioxabicyclo[2:2:1]hept-1-yl)-N-methylcarboxamide] was 816 nM; that for `CNC(=O)[C@@]12CN[C@@H]([C@H](n3cnc4c(NCc5cccc(I)c5)ncnc43)O1)[C@@H]2O` [SPN0235, (1R,3R,4R,7S)-(7-hydroxy-3-(N6-(3-iodobenzyl)-adenin-9-yl)-2-oxa-5-azabicyclo[2:2:1]hept-1-yl)-N-methylcarboxamide] was 12 nM. The value for `CNC(=O)[C@]12CO[C@@H]([C@H](n3cnc4c(NCc5cccc(I)c5)nc(Cl)nc43)O1)[C@@H]2O` [SPN0175, (1R,3R,4R,7S)-(7-hydroxy-3-(N6-(3-iodobenzyl)-2-chloro-adenin-9-yl)-2,5-dioxabicyclo[2:2:1]hept-1-yl)-N-methylcarboxamide] was 391 nM; that for `CNC(=O)[C@@]12CO[C@@H]([C@H](n3cnc4c(NCc5cccc(Br)c5)ncnc43)O1)[C@@H]2O` [SPN0186, (1R,3R,4R,7S)-(7-hydroxy-3-(N6-(3-bromobenzyl)-adenin-9-yl)-2,5-dioxabicyclo[2:2:1]hept-1-yl)-N-methylcarboxamide] was 638 nM. For `CNC(=O)[C@@]12CO[C@@H]([C@H](n3cnc4c(NCc5cccc(I)c5)ncnc43)O1)[C@@H]2N` [SPN0195, (1S,3R,4R,7S)-(7-amino-3-(N6-(3-iodobenzyl)-adenin-9-yl)-2,5-dioxabicyclo[2:2:1]hept-1-yl)-N-methylcarboxamide], the IC50 worked out at 683 nM.

For the compound `OC[C@@]12CO[C@@H]([C@H](n3cnc4c(NCc5cccc(I)c5)nc(Cl)nc43)O1)[C@@H]2O` [SPN0174, (1S,3R,4R,7S)-7-Hydroxy-1-hydroxymethyl-3-(N6-(3-iodobenzyl)-2-chloro-adenin-9-yl)-2,5-dioxabicyclo[2:2:1]heptane], the IC50 is 209 nM. Take `OC[C@@]12CO[C@@H]([C@H](n3cnc4c(NCc5cccc(I)c5)ncnc43)O1)[C@@H]2O` [SPN0169, (1S,3R,4R,7S)-7-Hydroxy-1-hydroxymethyl-3-(N6-(3-iodobenzyl)-adenin-9-yl)-2,5-dioxabicyclo[2:2:1]heptane]: the IC50 was found to be 154 nM. Regarding `OCC12CNC(C(n3cnc4c(NCc5cccc(I)c5)ncnc43)O1)C2O` (single isomer, unassigned) [SPN0240], the IC50 came to 94 nM.

Source of the values: US20100062994A1, “Adenosine Receptor Antagonists” (SANTARIS PHARMA A/S, priority 2006, published 2010).
